From patent US9393222B2, “Use of HDAC and/or DNMT inhibitors for treatment of ischemic injury” (The Trustees of the University of Pennsylvania, priority 2004, dated 2016)

Experiments:
[1] = test system: myocardial ischemia-reperfusion injury; assay: Mouse myocardial ischemia-reperfusion (45 min LAD coronary artery occlusion, 24 h reperfusion), infarct size/area at risk; type: in vivo, mice
Protocol: Mice were injected with 5-aza-2′dC or saline, then subjected to ischemia. […] Both visual blanching and ST segment elevation on continuous ECG display confirmed myocardial ischemia. After 45 minutes, the PE-10 tubing was removed, permitting reperfusion. The sternotomy wound was closed in two layers with 4-0 Vicryl (Ethicon, Inc., Sommerville, N.J.) and the mouse extubated. 24 hours later, the mice were sacrificed, and infarcted and at-risk myocardial tissue was quantitated to determine infarct size.
The volume of viable myocardium remaining was determined by incubation of the tissue with 2% triphenyltetrazolium chloride: mice were euthanized by CO2 inhalation, the hearts were removed, and the aorta cannulated with a 21-gauge blunt-ended needle. Hearts were perfused with 3 ml of phosphate buffered saline solution, followed by 3 ml of 1% (2,3,5)-triphenyltetrazolium (TTC) at 37° C. The hearts were frozen at −80° C. for 20 minutes and cut into 1.5-mm slices. Each slice was individually weighed and photographed with incident light on both sides with a Leica DC200 CCD camera and MZ16 stereomicroscope (Leica Microsystems, Inc.) Infarct area was determined by visualizing TTC precipitate-excluded areas using NIH Image J software.
The volume of tissue at risk for ischemic injury (i.e. tissue lacking normal blood flow during the occlusion) was assessed by injection of the mice with FluoSphere 15-micron fluorescent microspheres (Molecular Probes/Invitrogen, Eugene, Oreg.) in the ascending aorta (clamped distally) after re-ligation of the left anterior descending coronary artery. The heart was sectioned, and fluorescence measured by cutting the tissue into 100 μm slices and determining the area of microsphere perfused cardiac tissue (perfused tissue) and the area excluded from microspheres (area at risk).
The volume of necrotic tissue was divided by the volume of tissue at risk for ischemic injury, to obtain the infarct size. Infarct size in the drug-treated groups was compared to the infarct size in the vehicle-treated group to determine the relative reduction in injury reported in the Table.
To ascertain the effect of DNMT inhibition on ischemic injury, mice were injected in the left ventricle with either the DNMT inhibitor 5-aza-2-deoxycytidine (5-aza-2′dC) or saline (negative control), then cardiac ischemia was induced by occlusion of the left anterior descending coronary artery for 45 minutes. The hearts were re-perfused for 24 hours, and the mice were sacrificed.
Mice were administered either the HDAC inhibitor TSA or vehicle (DMSO) alone, in the left ventricle. Ischemia was induced by occlusion of the left anterior descending coronary artery for 45 minutes, and mice were sacrificed following a 24-hour reperfusion period. The volume of infarcted and at-risk myocardial tissue was quantitated as described for Example 1.
To further characterize the effect of HDAC inhibitors and DNMT inhibitors on ischemic injury, a larger study was conducted, in which the HDAC inhibitor was added at several time points. In addition, a different HDAC inhibitor, Scriptaid (BioMol, Plymouth Meeting, Pa.), was tested, together with its corresponding negative control compound, Nullscript (Biomol). Ischemia was induced, and amounts of viable and necrotic tissue measured, as described for Example 1. A total of 217 mice were utilized in this Example, distributed as follows: Saline=38; DMSO=45; Nullscript=11; TSA-T1=31; TSA-T2=25; TSA-T3=15; Scriptaid=25; 5aza2′dC=27. […] In addition, HDAC inhibitors were effective when administered either before ischemia or 1 hour after ischemia.

[2] = test system: histone H3 acetylation (acetyl-Lys9 H3); assay: Histone acetylation in ischemic myocardium, acid/urea gel and anti-acetyl H3 Western blot; type: in vivo, mice; details: pre-treatment (1 hour before ischemia)
Protocol: Cells were lysed in Triton X/deoxycholate buffer (20 millimolar [mM] HEPES, pH 7.2, 1% Triton X-100, 1% sodium deoxycholate, 100 mM sodium chloride, 50 mM sodium fluoride, 5 mM EDTA, 100 μM sodium molybdate, with protease inhibitors), and insoluble material was removed by a 15 minute (min) centrifugation in a microfuge, and the supernatant was subjected to 100,000×g, […] centrifugation. The pellet was extracted with 9 M urea, and the resulting pellet extracted with 0.3 M HCl.
40 centimeter (cm) acetic acid/urea gels were prepared as follows: The separating gel (0.75 millimeter [mm] thick) contained 15% acrylamide/0.2% methylenebisacrylamide, 4 molar (M) urea, and 5% acetic acid. The stacking gel contained 7.5% acrylamide/0.1% methylenebisacrylamide, 8 M urea, and 5% acetic acid. Proteins were solubilized in sample buffer (8 M urea, 5% acetic acid, 5% 2-mercaptoethanol, 25 milligram per milliliter (mg/ml) protamine sulfate, with methyl green) and loaded onto gels that had been pre-electrophoresed to a constant current and scavenged with […] cysteamine (Sigma-Aldrich). […]
To determine the effect of ischemia and HDAC inhibitors on histone acetylation, ischemia was induced in mice, as described in Example 1, and the degree of histone acetylation in myocardium was determined Histone acetylation was reduced in response to ischemia (FIG. 1).

[3] = T1: treatment 1 hour before ischemia
[4] = time of treatment not given in Table 3
[5] = T2: treatment 1 hour after ischemia
[6] = T3: treatment 12 hours after ischemia

O=C(CCCCCN1C(=O)c2cccc3cccc(c23)C1=O)NO [Scriptaid]
% decrease (w.r.t. DMSO) [1, 3]: 44.20%
Infarct size/area at risk (±SEM) [1, 3]: 21.2% ± 0.33%

Nc1ncn([C@H]2C[C@H](O)[C@@H](CO)O2)c(=O)n1 [5-aza-2′dC, 5-aza-2-deoxycytidine]
reduction of infarct size vs saline ([1]; mice, injected in left ventricle before 45 min LAD occlusion, 24 h reperfusion): 69.6%
Ratio of infarct size/area at risk ([1]; mice, injected in left ventricle before 45 min LAD occlusion, 24 h reperfusion (Table 1)): 10.3%
% decrease (w.r.t. DMSO) [1, 4]: 71.40%
Infarct size/area at risk (±SEM) [1, 4]: 10.3% ± 0.03%

CC(/C=C/C(=O)NO)=C\[C@@H](C)C(=O)c1ccc(N(C)C)cc1 [TSA, trichostatin A]
% decrease (w.r.t. DMSO) [1, 3]: 48.30%
Infarct size/area at risk (±SEM) [1, 3]: 18.6% ± 0.04%
% decrease (w.r.t. DMSO) [1, 5]: 55.60%
Infarct size/area at risk (±SEM) [1, 5]: 16.0% ± 0.04%
% decrease (w.r.t. DMSO) [1, 6]: 8.30%
Infarct size/area at risk (±SEM) [1, 6]: 33.0% ± 0.05%
reduction in infarct size vs DMSO vehicle ([1]; mice, administered in left ventricle, 45 min LAD occlusion, 24 h reperfusion): 48.3%
Ratio of infarct size/area at risk ([1]; mice, administered in left ventricle, 45 min LAD occlusion, 24 h reperfusion (Table 2)): 18.6%
effect on ischemia-induced reduction in histone acetylation [2]: partially prevented the reduction in histone acetylation

O=C(CCCN1C(=O)c2cccc3cccc(c23)C1=O)NO [Nullscript]
Infarct size/area at risk (±SEM) [1, 4]: 38.0% ± 0.56%
